Laboratory results taken from US9387192B2, “Combination of rocaglamide and apoptosis inducing substances for the treatment of cancer” (DKFZ DEUTCHERS KREBSFORSCHUNGSZENTRUM, priority 2008, dated 2016).

What was measured:
[1] = test system: caspase-8, -9, -3, Bid, PARP; experiment: Western blot of apoptotic pathway proteins in Jurkat T cells; assay type: cell-based, human; conditions: 24 h
Experimental: 1×10^6 cells were sedimented and lysed for 15 min in ice-cold lyses buffer (29 mM Tris-HCl, pH 7.4, 137 mM NaCl, 10% (w/v) Glycerin, 1% (v/v) Triton X-100, 2 mM EDTA, 1 mM PMSF, 0.4 mM […], 10 mM NaF, complete protease inhibitor cocktail, Roche). After removing the cell debris by centrifugation at 13,000 rpm for 15 min, equal amounts of proteins were separated on a 12% SDS-PAGE, blotted onto a nitrocellulose membrane (Amersham Biosciences, Little Chalfon, UK) and blocked with 5% non-fat drymilk in PBS/Tween (0.05% Tween-20 in PBS). […]

[2] = test system: human leukemic Jurkat T cells; experiment: Apoptosis (FSC/SSC, DNA fragmentation) in Jurkat T cells; assay type: cell-based
Experimental: (§1) The mouse lymphoma cell line RMA (van Hall et al., 2000), the human leukemic T cell lines DND-41 (contains a p53 mutation), Jurkat J16, Jurkat A3 and Jurkat A3 deficient in FADD (J-FADDdef) (purchased from American Type Culture Collection, ATCC, Manassas, USA) were cultured in RPMI 1640 medium (GIBCO laboratories, Grand Island, N.Y.) supplemented with 10% FCS, 50 μg/ml gentamicin (GIBCO), 6 mM HEPES (GIBCO, 1 M solution), and 2 mM L-glutamine (GIBCO, 200 mM solution) at 37° C. and 5% CO2. T cells were stimulated with either plate-bound αCD3 (OKT3 10 μg/ml) or PMA (5 ng/ml) plus ionomycin (0.5 μM).
(§2) Cells were plated in triplicates and treated for the indicated periods of time at 37° C. with different reagents as described in the figure legends. Rocaglamide derivatives used in this study were isolated from various Aglaia species to at least 98% purity determined by HPLC as reported previously (Schneider et al., 2000). The structures of the compounds were unequivocally elucidated based on their NMR and mass spectra as described before (Schneider et al., 2000). Apoptotic cell death was examined by two parameters: FSC/SSC index of apoptotic-like change in cell size and granularity by FACScan and by analysis of DNA fragmentation (Vermes et al., 2000).

[3] = test system: human leukemic DND-41 T cells (p53 mutation); experiment: Apoptosis in DND-41 T cells; assay type: cell-based
Experimental: as §1, §2

[4] = test system: mouse leukemic RMA T cells; experiment: Activation-induced apoptosis in RMA cells in vitro; assay type: cell-based
Experimental: as §1, §2

[5] = test system: MiaPaca pancreatic carcinoma cell line; experiment: Apoptosis (Nicoletti) in MiaPaca with anticancer reagents; assay type: cell-based; conditions: Roc-A 50 nM with different doses of anticancer reagents, 48 h
Experimental: (§3) Pancreatic carcinoma cell lines MiaPaca and Capan-1 were treated with Roc-A (50 nM) in combination with different doses of anticancer reagents for 48 h. Apoptotic cell death was determined by Nicoletti (DNA-fragmentation). The leukemia cell line Jurkat was treated with either TNFα (20 ng/ml) or TRAIL (2 ng/ml) in combination with different doses of rocaglamide as indicated for 24 h. Apoptotic cell death was determined by FSC/SSC.

[6] = test system: normal peripheral blood T cells; experiment: Activation-induced cell death in normal peripheral blood T cells (day 0, day 6); assay type: cell-based, human
Experimental: Human peripheral T cells were prepared as described previously (Klas et al., 1993) and were more than 90% CD3 positive. For activation, resting T cells (day 0) were cultured at 2×10^6 cells/ml with 1 μg/ml PHA for 16 h (day 1). Day 1 T cells were then washed three times and cultured for an additional 5 days in the presence of 25 U/ml IL-2 (day 6).
as §2

[7] = test system: Capan-1 pancreatic carcinoma cell line; experiment: Apoptosis (Nicoletti) in Capan-1 with anticancer reagents; assay type: cell-based; conditions: Capan-1, Roc-A 50 nM with different doses of anticancer reagents, 48 h
Experimental: as §3

[8] = test system: Hodgkin lymphoma cell line L1236; experiment: Apoptosis (DNA fragmentation) in L1236 cells; assay type: cell-based, human; conditions: L1236, TRAIL alone, different concentrations, 48 h
Experimental: (§4) The human malignant cell lines used in this study are: the human leukemic T cell lines CEM and Jurkat (J16), the HTLV-1 ATL derived cell lines SP, MT-2, CHAMP, and ATL-3, and Hodgkin lymphoma derived cell lines L1236 and KM-H2. Human peripheral blood T cells were prepared as described previously (Zhu et al., 2009) and were more than 90% CD3 positive. All cells were cultured in RPMI 1640 medium (GIBCO laboratories, Grand Island, N.Y.) supplemented with 10% FCS, 50 μg/ml gentamicin (GIBCO), 6 mM HEPES (GIBCO, 1 M solution), and 2 mM L-glutamine (GIBCO, 200 mM solution) at 37° C. and 5% CO2.
(§5) Cells were plated in triplicates and treated for the indicated periods of time at 37° C. with different doses of Rocaglamide AR (Roc-AR) (>98% pure, assessed by HPLC) (Proksch et al., 2005), Superkiller-TRAIL (Alexis) or LZ-CD95L (Walczak et al., 1999) alone, or in combinations as indicated in figures. Apoptotic cell death was determined by analysis of DNA fragmentation (% DNA fragmentation) as previously described (Krueger et al., 2006). Specific apoptosis was calculated as (percentage of experimental apoptosis−percentage of spontaneous apoptosis)/(100−percentage of spontaneous apoptosis)×100.

[9] = test system: HTLV-1-associated ATL cell lines SP, MT-2, ATL-3 and CHAMP; experiment: Apoptosis (DNA fragmentation) in HTLV-1-associated ATL cell lines; assay type: cell-based, human; conditions: HTLV-1-infected ATL cell lines, TRAIL alone, different concentrations
Experimental: as §4, §5

[10] = test system: Hodgkin lymphoma cell line KM-H2; experiment: Apoptosis (DNA fragmentation) in KM-H2 cells; assay type: cell-based, human; conditions: KM-H2, TRAIL alone, different concentrations, 48 h
Experimental: as §4, §5

[11] = Glutamate pyruvate transaminase (GPT) liver toxicity in mice; assay type: in vivo, mouse; conditions: RMA-grafted mice treated with Roc-Q, Con A or both; normal GPT below 50 U/l
Experimental: To examine the liver toxicity of Rocaglamide, the activities of GPT were determined from the heparinized blood of mice by test strips Reflotron® GPT as described by the instruction of the manufacture (Roche 10745138). The normal levels of GPT activity should be below 50 U/l.

[12] = cited from earlier work
RMA tumor = RMA tumor graft in C57/BL6 mice; assay type: in vivo, mouse
Experimental: C57/BL6 mice were implanted subcutaneously in the right dorsal flank region with RMA (1×10^6 cells). One day after grafting, Roc-Q (1 mg/kg body weight, dissolved in DMSO and diluted in olive oil) was administered by intraperitoneal injection (i.p.) as indicated in the figure legend. The control group was treated in an analogous manner with the vehicle. The tumor size was measured with a micrometer caliper at the indicated times and the tumor volume (V) was calculated by the formula V=(a^2×b)/2, where “a” is the width and “b” is the length in mm (Mattern et al., 1998). All protocols using and maintaining animals were approved by the German Animal Protection Authority (Office Regierungspräsidium Karlsruhe). Treated and control animals were compared for differences in tumor growth after end of treatment using the non-parametric method in a one-sided statistical test at the significance level of 0.05 (Koziol et al., 1981).
To investigate whether the effect of Roc on activation-induced cell death is also occurred in vivo, RMA cells were grafted subcutaneously into the C57/BL6 mice. One day after xenografting, the mice were randomly separated into four groups (each group contains 5 mice). One group with no treatment was taken as a control, and the other three groups received Con A, Roc-Q, or a combination of Roc-Q and Con A, respectively, three times per week by intraperitoneal injection (i.p.). Two independent experiments were carried out. In the first experiment, RMA (10×10^5 cells)-grafted mice were treated with or without 1 mg/kg body weight of Roc-Q in the presence or absence of Con A as described in FIG. 4A. No toxicity was seen up to a dose of 10 mg/kg body weight (Lee et al., 1998). Acute toxicity was reported with an LD50 of >300 mg/kg (Umezawa et al., 1997). […] In this experiment, the control mice developed tumors after 9 days.

[13] = test system: leukemia cell line Jurkat; experiment: Apoptosis (FSC/SSC) in Jurkat with TNFα or TRAIL; assay type: cell-based; conditions: 24 h
Experimental: as §3

Molecule: Roc-A
- caspase and PARP cleavage (Western blot) ([1]; Roc-A alone): activation of caspase-9 and generation of a detectable amount of the active p17 caspase-3 product and weak PARP cleavage
- cleavage of caspase-8 (Western blot) ([1]; Roc-A with T-cell stimulation (PMA/ionomycin)): strongly increased cleavages of caspase-8
- apoptotic cell death ([2]; Jurkat T cells stimulated with αCD3 or PMA/ionomycin in the presence of Roc-A): dose-dependent increase in apoptotic cell death
- apoptotic cell death ([2]; Jurkat, Roc-A 50 nM combined with anti-CD95 antibody αAPO-1, 24 h): enhanced apoptotic cell death
- apoptotic cell death ([2]; Jurkat, Roc-A 50 nM combined with recombinant LZ-CD95L, 24 h): enhanced apoptotic cell death
- cell death compared to Jurkat T cells ([3]; DND-41, Roc-A alone): more resistant
- apoptotic cell death ([3]; DND-41, combination of Roc-A and PMA/ionomycin stimulation): dramatic increase in apoptotic cell death
- PMA/ionomycin- or Con A-stimulation induced cell death [4]: enhanced
- apoptotic cell death [5]: synergistically increased the apoptic cell death
- toxicity ([6]; day 0 (resting) T cells, Roc-A alone 50 nM, 48 h): no toxicity
- cell death ([6]; day 0 T cells, Roc-A 50 nM with PMA/ionomycin, 48 h): did not increase cell death
- PMA/ionomycin-induced cell death ([6]; day 6 (pre-activated) T cells re-stimulated with PMA/ionomycin, Roc-A 50 nM): did not further enhance PMA/ionomycin-induced cell death
- apoptotic cell death [7]: synergistically increased the apoptic cell death

Molecule: TRAIL
- TRAIL-mediated apoptosis [8]: completely resistant
- TRAIL-induced apoptosis [9]: resistant to TRAIL-induced apoptosis
- TRAIL-mediated apoptosis [10]: completely resistant

Molecule: CNC(=O)C1C(O)C2(O)c3c(OC)cc(OC)cc3OC2(c2ccc(OC)cc2)C1c1ccccc1 (centres unmarked) [Roc-Q]
- PMA/ionomycin- or Con A-stimulation induced cell death [4]: enhanced
- liver toxicity (GPT activity) [11]: No liver toxicity
- dose up to which no toxicity was seen ([12]; Lee et al., 1998): ≤ 10 mg/kg body weight
- acute toxicity LD50 ([12]; Umezawa et al., 1997): > 300 mg/kg
- tumor size and tumor growth rate (RMA tumor; first experiment, 10×10^5 RMA cells, single agent only (Roc-Q 1 mg/kg or Con A 5 mg/kg) i.p. three times per week): No significant changes in tumor size and tumor growth rate
- tumor growth (RMA tumor; first experiment, Roc-Q 1 mg/kg combined with Con A 5 mg/kg i.p.): delayed tumor growth
- tumor size (RMA tumor; first experiment, Roc-Q 1 mg/kg combined with Con A 5 mg/kg i.p., final day): reduced tumor sizes
- body weight loss (RMA tumor; mice after treatment with Roc-Q, Con A or both): no body weight loss
- tumor growth (RMA tumor; second experiment, 2.5×10^5 RMA cells, single agent only (Roc-Q 2.5 mg/kg or Con A 5 mg/kg) i.p.): Significantly delayed tumor growth
- tumor progression and tumor growth (RMA tumor; second experiment, Roc-Q 2.5 mg/kg combined with Con A 5 mg/kg, except for one mouse): further inhibition
- tumor size and tumor weight (RMA tumor; second experiment, Roc-Q alone 2.5 mg/kg): reduced tumor sizes and tumor weight

Molecule: COc1ccc([C@@]23Oc4cc(OC)cc(OC)c4[C@]2(O)[C@H](O)[C@H](C(=O)N(C)C)[C@H]3c2ccccc2)cc1 [rocaglamide]
- apoptotic cell death ([13]; TNFα 20 ng/ml with different doses of rocaglamide): synergistically increased the apoptic cell death
- apoptotic cell death ([13]; TRAIL 2 ng/ml with different doses of rocaglamide): synergistically increased the apoptic cell death
